Assay results published in patent US20090143279A1 (priority 2007, published 2009).
Where two headings read alike, the source gives them in different places.

What was measured:
[1] = system: mitochondrial membrane potential; assay type: cell-based, mouse; conditions: for ΔΨm (composite Z-score): normalized score vs mock-treated (DMSO) wells
reactive oxygen species = assay type: cell-based, mouse; conditions: for ROS (composite Z-score): normalized score vs mock-treated (DMSO) wells
OXPHOS gene expression = assay type: cell-based, mouse; conditions: for GE-HTS (composite Z-score): normalized score vs mock-treated (DMSO) wells
nuOXPHOS transcripts = assay type: cell-based, mouse; conditions: for nucOX (composite Z-score): normalized score vs mock-treated (DMSO) wells
mtOXPHOS transcripts = assay type: cell-based, mouse; conditions: for mitoOX (composite Z-score): normalized score vs mock-treated (DMSO) wells
cytochrome c = assay type: cell-based, mouse; conditions: for cyt c (composite Z-score): normalized score vs mock-treated (DMSO) wells
C2C12 myotubes = conditions: for Viability (composite Z-score): normalized score vs mock-treated (DMSO) wells
[2] = system: cellular dehydrogenase activity; conditions: for MTT (composite Z-score): normalized score vs mock-treated (DMSO) wells
[3] = composite Z-score vs mock-treated (DMSO) wells, Conc 20 μM
[4] = Table 7, C2C12 myotubes, 48 h, composite Z-score
[5] = composite Z-score vs DMSO, Conc 20 μM
[6] = Table 4, C2C12 myotubes, 48 h, composite Z-score
[7] = composite Z-score vs DMSO wells, Conc 20 μM

cytochrome c, sequence (P62897 whole entry): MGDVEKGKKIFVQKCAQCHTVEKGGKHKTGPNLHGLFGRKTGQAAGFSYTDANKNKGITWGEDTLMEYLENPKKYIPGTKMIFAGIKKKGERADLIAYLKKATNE

Compound: C=C1[C@@H]([C@@]2(C)[C@@H](OC(C)=O)CC(=O)O[C@](C)(COC(C)=O)[C@@H]2C(=O)OC)[C@@H](OC=O)[C@H](OC(=O)[C@H](O)[C@H](C)CC)[C@@]2(C)[C@H](c3ccoc3)CC(=O)[C@]12O [Prieurianin, reference compound]
- ΔΨm [1, 3]: 1.108
- ROS (reactive oxygen species; [3]): −1.358
- GE-HTS (OXPHOS gene expression; [3]): 2.020
- nucOXPHOS Z (nuOXPHOS transcripts; [4]): 1.90
- nucOX (nuOXPHOS transcripts; [3]): 1.896
- mito-OXPHOS Z (mtOXPHOS transcripts; [4]): 1.93
- mitoOX (mtOXPHOS transcripts; [3]): 1.931
- cyt c (cytochrome c; [3]): −1.620
- Viability (C2C12 myotubes; [3]): −0.894
- MTT [2, 3]: −1.263

Compound: COc1cc2c(cc1OC)[C@@H]1C(=O)c3c(O)cc4c(c3O[C@@H]1CO2)C=CC(C)(C)O4 [alpha-toxicarol, reference compound]
- ΔΨm ([1]; Table 4, C2C12 myotubes, 48 h, JC-1, composite Z-score): 0.820
- ΔΨm [1, 5]: 0.820
- ROS (reactive oxygen species; [6]): 0.101
- ROS (reactive oxygen species; [5]): 0.101
- GE-HTS (OXPHOS gene expression; [5]): −0.046
- nucOX (nuOXPHOS transcripts; [5]): 0.124
- mitoOX (mtOXPHOS transcripts; [5]): −0.345
- cyt c (cytochrome c; [5]): −2.637
- Viability (C2C12 myotubes; [6]): 0.304
- Viability (C2C12 myotubes; [5]): 0.304
- MTT [2, 6]: −1.982
- MTT [2, 5]: −1.982

Compound: CN1C[C@H](C(=O)N[C@]2(C)O[C@@]3(O)[C@@H]4CCCN4C(=O)[C@H](Cc4ccccc4)N3C2=O)C[C@@H]2c3cccc4[nH]cc(c34)C[C@H]21 [dihydroergotamine]
- ΔΨm [1, 7]: 0.372
- ROS (reactive oxygen species; [7]): 1.157
- GE-HTS (OXPHOS gene expression; [7]): 0.008
- nucOX (nuOXPHOS transcripts; [7]): −0.021
- mitoOX (mtOXPHOS transcripts; [7]): 0.143
- cyt c (cytochrome c; [7]): −0.494
- Viability (C2C12 myotubes; [7]): 0.293
- MTT [2, 7]: −0.604

Compound: CC(C)(C#N)O[C@@H]1O[C@H](CO)[C@@H](O)[C@H](O)[C@H]1O [linamarin]
- ΔΨm (composite Z-score) ([1]; Conc 20 μM): −0.333
- ROS (composite Z-score) (reactive oxygen species; Conc 20 μM): −0.189
- GE-HTS (composite Z-score) (OXPHOS gene expression; Conc 20 μM): −1.024
- nucOX (composite Z-score) (nuOXPHOS transcripts; Conc 20 μM): −0.847
- mitoOX (composite Z-score) (mtOXPHOS transcripts; Conc 20 μM): −1.232
- cyt c (composite Z-score) (cytochrome c; Conc 20 μM): −0.052
- Viability (composite Z-score) (C2C12 myotubes; Conc 20 μM): 0.796
- MTT (composite Z-score) ([2]; Conc 20 μM): −1.611

Compound: CC(NCCC(c1ccccc1)c1ccccc1)c1ccccc1 (stereo not drawn) [fendiline]
- ΔΨm [1, 7]: −1.174
- ROS (reactive oxygen species; [7]): 0.912
- GE-HTS (OXPHOS gene expression; [7]): −1.005
- nucOX (nuOXPHOS transcripts; [7]): −0.896
- mitoOX (mtOXPHOS transcripts; [7]): −0.951
- cyt c (cytochrome c): −0.405
- cyt c (cytochrome c; [7]): −0.752
- Viability (C2C12 myotubes; [7]): −0.080
- MTT [2, 7]: −1.007

Compound: NCC[C@H](O)C(=O)N[C@@H]1C[C@H](N)[C@@H](O[C@H]2O[C@H](CN)[C@@H](O)[C@H](O)[C@H]2O)[C@H](O)[C@H]1O[C@H]1O[C@H](CO)[C@@H](O)[C@H](N)[C@H]1O [amikacin]
- ΔΨm [1, 5]: −0.116
- ROS (reactive oxygen species; [5]): 0.301
- GE-HTS (OXPHOS gene expression; [5]): 0.332
- nucOX (nuOXPHOS transcripts; [5]): 0.268
- mitoOX (mtOXPHOS transcripts; [5]): 0.338
- cyt c (cytochrome c; [5]): −0.090
- Viability (C2C12 myotubes; [5]): 0.034
- MTT [2, 5]: −1.688

Compound: 3-deoxo-3beta-hydroxymexicanolide 16-enol ether
- ΔΨm [1, 3]: −0.059
- ROS (reactive oxygen species; [3]): 1.279
- GE-HTS (OXPHOS gene expression; [3]): −0.203
- nucOX (nuOXPHOS transcripts; [3]): −0.247
- mitoOX (mtOXPHOS transcripts; [3]): −0.133
- cyt c (cytochrome c; [3]): −0.040
- Viability (C2C12 myotubes; [3]): 0.290
- MTT [2, 3]: −1.922

Compound: CN(C)CCOC(=O)C(c1ccccc1)C1(O)CCCC1 (stereo not drawn) [cyclopentolate]
- ΔΨm [1, 7]: −0.072
- ROS (reactive oxygen species; [7]): −0.406
- GE-HTS (OXPHOS gene expression; [7]): 0.556
- nucOX (nuOXPHOS transcripts; [7]): 0.830
- mitoOX (mtOXPHOS transcripts; [7]): −0.037
- cyt c (cytochrome c): 0.859
- cyt c (cytochrome c; [7]): −0.283
- Viability (C2C12 myotubes; [7]): −0.300
- MTT [2, 7]: −0.756

Compound: CN1CCCN=C1/C=C/c1cccs1 [pyrantel pamoate]
- ΔΨm [1]: −2.829
- ROS (reactive oxygen species): 0.592
- GE-HTS (OXPHOS gene expression): −0.468
- nucOX (nuOXPHOS transcripts): −0.500
- mitoOX (mtOXPHOS transcripts): −0.327
- cyt c (cytochrome c): 0.640
- Viability (C2C12 myotubes): −1.934
- MTT [2]: −0.189

Compound: COc1cc2c(cc1OC)[C@@]13CCN4CC5=CCO[C@H]6CC(=O)N2[C@H]1[C@H]6[C@H]5C[C@H]43 [brucine]
- ΔΨm (composite Z-score) ([1]; Conc 20 μM): 0.552
- ROS (composite Z-score) (reactive oxygen species; Conc 20 μM): 0.930
- GE-HTS (composite Z-score) (OXPHOS gene expression; Conc 20 μM): −1.106
- nucOX (composite Z-score) (nuOXPHOS transcripts; Conc 20 μM): −1.084
- mitoOX (composite Z-score) (mtOXPHOS transcripts; Conc 20 μM): −0.887
- cyt c (composite Z-score) (cytochrome c; Conc 20 μM): 0.660
- Viability (composite Z-score) (C2C12 myotubes; Conc 20 μM): 1.605
- MTT (composite Z-score) ([2]; Conc 20 μM): −1.270

Compound: Oc1cc(O)c2c(c1)O[C@H](c1ccc(O)c(O)c1)[C@@H](O)C2 [cianidanol, reference compound]
- ΔΨm [1, 7]: −1.746
- ROS (reactive oxygen species; [7]): −0.371
- GE-HTS (OXPHOS gene expression; [7]): −0.113
- nucOX (nuOXPHOS transcripts; [7]): −0.357
- mitoOX (mtOXPHOS transcripts; [7]): 0.347
- cyt c (cytochrome c; [7]): 0.639
- Viability (C2C12 myotubes; [7]): 0.630
- MTT [2, 7]: −1.471
